Data taken from patent US9193731B2, “Antimicrobial compounds and methods of making and using the same” (Melinta Therapeutics, Inc., priority 2009, dated 2015).

System: Escherichia coli strain ATCC25922
Test: standard microdilution assay to determine minimum inhibitory concentrations (MICs)
Assay type: cell-based
Details: for E. coli ATCC25922 MIC: Escherichia coli strain ATCC25922, microdilution; for MIC: Escherichia coli, ATCC25922, Escherichia coli strain ATCC25922, microdilution, read-out: E. coli ATCC25922 MIC
Procedure, shortened: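 Broth microdilution MIC against E. coli ATCC25922, following CLSI protocols, typically in a 100 microliter final volume. Results reported as +/− relative to a 16 micrograms/ml cutoff.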

| Structure (SMILES) | E. coli ATCC25922 MIC | MIC |
| --- | --- | --- |
| CN(C)Cc1ccc(-n2cc3cc(-c4ccc(S(=O)(=O)N(CC5COc6ccccc6O5)C5CCNCC5)cc4)[nH]c3nc2=O)cc1 (stereo not drawn) [Compound 999] | − (a “−” indicates that the compound has an MIC value greater than 16 micrograms/ml) |  |
| CN(C)Cc1ccc(-n2cc3cc(-c4ccc(S(=O)(=O)N(CCCC5CCCC5)C5CCNCC5)cc4)[nH]c3nc2=O)cc1 [Compound 1000] | − (a “−” indicates that the compound has an MIC value greater than 16 micrograms/ml) |  |
| CN(C)Cc1ccc(-n2cc3cc(-c4ccc(S(=O)(=O)N(CC5CC5)C5CCNCC5)cc4)[nH]c3nc2=O)cc1 [Compound 1001] | − (a “−” indicates that the compound has an MIC value greater than 16 micrograms/ml) |  |
| NCc1ccc(-n2cc3cc(-c4ccc(S(=O)(=O)N(CCCn5ccc(C(F)(F)F)n5)C5CCNCC5)cc4)[nH]c3nc2=O)cc1 [Compound 1002] | − (a “−” indicates that the compound has an MIC value greater than 16 micrograms/ml) |  |
| N=C(N)NCCCNCc1ccc(-n2cc3cc(-c4ccc(S(=O)(=O)N(CCCn5cc(Cl)cn5)C5CCNCC5)cc4)[nH]c3nc2=O)cc1 [Compound 1003] | + (a “+” indicates that the compound has an MIC value of 16 micrograms/ml or less) |  |
| N=C(N)NCCCN1CC=C(n2cc3cc(-c4ccc(S(=O)(=O)N(Cc5ccc6nonc6c5)C5CCNCC5)cc4)[nH]c3nc2=O)CC1 [Compound 1004] | + (a “+” indicates that the compound has an MIC value of 16 micrograms/ml or less) |  |
| N=C(N)NCCCNCc1ccc(-n2cc3cc(-c4cc(C(=O)N5CCc6ccccc6C5)cc(N5CCNCC5)c4)[nH]c3nc2=O)cc1 [Compound 1009] | + (a “+” indicates that the compound has an MIC value of 16 micrograms/ml or less) |  |
| N=C(N)NCCCNC(=O)c1ccc(-n2cc3cc(-c4ccc(S(=O)(=O)N(CC5COc6ccccc6O5)C5CCNCC5)cc4)[nH]c3nc2=O)cc1 (stereo not drawn) [Compound 1010] | + (a “+” indicates that the compound has an MIC value of 16 micrograms/ml or less) |  |
| N=C(N)NCCCNC(=O)c1ccc(-n2cc3cc(-c4ccc(S(=O)(=O)N(CCCC5CCCC5)C5CCNCC5)cc4)[nH]c3nc2=O)cc1 [Compound 1011] | + (a “+” indicates that the compound has an MIC value of 16 micrograms/ml or less) |  |
| N=C(N)NCCCNC(c1ccc(-n2cc3cc(-c4ccc(S(=O)(=O)NC5CCNCC5)cc4)[nH]c3nc2=O)cc1)C(F)(F)F (stereo not drawn) [Compound 1015] | + (a “+” indicates that the compound has an MIC value of 16 micrograms/ml or less) |  |
| N=C(N)NCCCNC(=O)c1ccc(C2N=c3cc(-c4ccc(S(=O)(=O)N(CCCN5CCCCC5)C5CCNCC5)cc4)[nH]c3=NC2=O)cc1 (stereo not drawn) [Compound 1017] | + (a “+” indicates that the compound has an MIC value of 16 micrograms/ml or less) |  |
| N=C(N)NCCCNCc1ccc(-n2cc3cc(-c4cccc(S(=O)(=O)N(CC5CC5)C5CCNCC5)c4)[nH]c3nc2=O)cc1 [Compound 1018] | + (a “+” indicates that the compound has an MIC value of 16 micrograms/ml or less) |  |
| N=C(N)NCCCNCc1ccc(-n2cc3cc(-c4ccc(S(=O)(=O)N(CCCC5CCCCN5)C5CCNCC5)cc4)[nH]c3nc2=O)cc1 (stereo not drawn) [Compound 1019] | + (a “+” indicates that the compound has an MIC value of 16 micrograms/ml or less) |  |
| CNCc1ccc(-n2cc3cc(-c4ccc(S(=O)(=O)N(CCCn5cccn5)C5CCNCC5)cc4)[nH]c3nc2=O)cc1 [Compound 1020] |  | > 16 µg/mL |
| CNCc1ccc(-n2cc3cc(-c4ccc(S(=O)(=O)N(CCCn5ccc(C(F)(F)F)n5)C5CCNCC5)cc4)[nH]c3nc2=O)cc1 [Compound 1021] |  | > 16 µg/mL |
| N=C(N)NCCCNCc1ccc(-n2cc3cc(-c4cc(C(=O)NC5CCNCC5)cc(N5CCNCC5)c4)[nH]c3nc2=O)cc1 [Compound 1023] | + (a “+” indicates that the compound has an MIC value of 16 micrograms/ml or less) |  |
| N=C(N)NCCCNCc1ccc(-n2cc3cc(-c4cccc(S(=O)(=O)N(CCCN5CCCCC5)C5CCNCC5)c4)[nH]c3nc2=O)cc1 [Compound 1027] | + (a “+” indicates that the compound has an MIC value of 16 micrograms/ml or less) |  |

| Structure (SMILES) | E. coli ATCC25922 MIC | MIC |
| --- | --- | --- |
| N=C(N)NCCCNCc1ccc(-n2cc3cc(-c4cc(C(=O)NCC5CCCO5)cc(N5CCNCC5)c4)[nH]c3nc2=O)cc1 (stereo not drawn) [Compound 1029] | + (a “+” indicates that the compound has an MIC value of 16 micrograms/ml or less) |  |
| CNCc1ccc(-n2cc3cc(-c4ccc(S(=O)(=O)N(CCCc5cccc(OC)c5)C5CCNCC5)cc4)[nH]c3nc2=O)cc1 [Compound 1034] |  | > 16 µg/mL |
| NCc1ccc(-n2cc3cc(-c4ccc(S(=O)(=O)N(CCCn5cccn5)C5CCNCC5)cc4)[nH]c3nc2=O)cc1 [Compound 1035] |  | > 16 µg/mL |
| COc1cccc(CCCN(C2CCNCC2)S(=O)(=O)c2ccc(-c3cc4cn(-c5ccc(CN)cc5)c(=O)nc4[nH]3)cc2)c1 [Compound 1036] |  | > 16 µg/mL |
| CNCc1ccc(-n2cc3cc(-c4ccc(S(=O)(=O)N(CCCN5CCOCC5)C5CCNCC5)cc4)[nH]c3nc2=O)cc1 [Compound 1037] |  | > 16 µg/mL |
| NCc1ccc(-n2cc3cc(-c4ccc(S(=O)(=O)N(CCCN5CCOCC5)C5CCNCC5)cc4)[nH]c3nc2=O)cc1 [Compound 1038] |  | > 16 µg/mL |
| CNCc1ccc(-n2cc3cc(-c4ccc(S(=O)(=O)N(CCCN5CCCCC5C)C5CCNCC5)cc4)[nH]c3nc2=O)cc1 (stereo not drawn) [Compound 1039] |  | > 16 µg/mL |
| N=C(N)NCCCNCc1ccc(-n2cc3cc(-c4cc(CNCC(F)(F)F)cc(N5CCNCC5)c4)[nH]c3nc2=O)cc1 [Compound 1040] | + (a “+” indicates that the compound has an MIC value of 16 micrograms/ml or less) |  |
| N=C(N)NCCCNCc1ccc(-n2cc3cc(-c4cc(CNc5cc(F)cc(F)c5)cc(N5CCNCC5)c4)[nH]c3nc2=O)cc1 [Compound 1043] | + (a “+” indicates that the compound has an MIC value of 16 micrograms/ml or less) |  |
| N=C(N)NCCCNCc1ccc(-n2cc3cc(-c4cc(CNCCc5ccc(F)cc5)cc(N5CCNCC5)c4)[nH]c3nc2=O)cc1 [Compound 1044] | + (a “+” indicates that the compound has an MIC value of 16 micrograms/ml or less) |  |
| N=C(N)NCCCNCc1ccc(-n2cc3cc(-c4cc(C(=O)NC5CCC(F)(F)CC5)cc(N5CCNCC5)c4)[nH]c3nc2=O)cc1 [Compound 1045] | + (a “+” indicates that the compound has an MIC value of 16 micrograms/ml or less) |  |
| N=C(N)NCCCNCc1ccc(-n2cc3cc(-c4cccc(S(=O)(=O)N(CCCC5CCCC5)C5CCNCC5)c4)[nH]c3nc2=O)cc1 [Compound 1047] | + (a “+” indicates that the compound has an MIC value of 16 micrograms/ml or less) |  |
| N=C(N)NCCNC(=O)c1ccc(-n2cc3cc(-c4ccc(S(=O)(=O)NC5CCNCC5)cc4)[nH]c3nc2=O)cc1 [Compound 1048] | + (a “+” indicates that the compound has an MIC value of 16 micrograms/ml or less) |  |
| CN(Cc1cccc(F)c1)Cc1cc(-c2cc3cn(-c4ccc(CNCCCNC(=N)N)cc4)c(=O)nc3[nH]2)cc(N2CCNCC2)c1 [Compound 1049] | + (a “+” indicates that the compound has an MIC value of 16 micrograms/ml or less) |  |
| N=C(N)NCCCNCc1ccc(-n2cc3cc(-c4cc(CN5Cc6ccccc6C5)cc(N5CCNCC5)c4)[nH]c3nc2=O)cc1 [Compound 1050] | + (a “+” indicates that the compound has an MIC value of 16 micrograms/ml or less) |  |
| CC1CCCCN1CCCN(C1CCNCC1)S(=O)(=O)c1ccc(-c2cc3cn(-c4ccc(CN)cc4)c(=O)nc3[nH]2)cc1 (stereo not drawn) [Compound 1051] |  | > 16 µg/mL |
